This is an account of results in US4235776A, “Tetrahydro-2H-benzo[c]pyrroles” (Eli Lilly and Company, priority 1979, dated 1980).

The structures appear in SMILES notation. Counter-ions that a name gives are not always drawn.

In one data set the test system is mouse. The experiment in a line: intraperitoneal toxicity in the mouse. The class given is in vivo. As to the method: In using the compounds of this invention to inhibit prolactin secretion or to treat Prakinson's syndrome or for other pharmacologic action, a pharmaceutically active compound according to Formula I above, or a salt thereof with a pharmaceutically-acceptable acid, is administered to a subject suffering from Parkinsonism or in need of having their prolactin level reduced in an amount effective to alleviate some of the symptoms of Parkinsonism or to reduce an elevated prolactin level. Oral administration is preferred. If parenteral administration is used, the injection is preferably by the subcutaneous route using an appropriate pharmaceutical formulation. […] In particular, with intravenous or intramuscular administration, a water soluble pharmaceutically-acceptable salt is employed. For oral administration, a pharmaceutically active compound according to Formula I either as the free base or in the form of a salt thereof can also be mixed with standard pharmaceutical excipients and loaded into empty telescoping gelatin capsules or pressed into tablets. The oral dosage range is from about 0.01 to 10 mg/kg of mammalian weight and the parenteral dose range from about 0.0025 to 2.5 mg/kg of mammalian weight.

For data set [1], the system named is 6-hydroxydopamine-lesioned rats. The experiment in a line: turning behavior in 6-hydroxydopamine-lesioned rats (dopamine agonist activity). In kind it is in vivo, rat. Particulars: 1 mg/kg intraperitoneal. The text has this:
In this test, nigro-neostriatal-lesioned rats are employed prepared by the procedure of Ungerstedt and Arbuthnott, Brain Res, 24, 485 (1970). A compound having dopamine agonist activity upon injection causes the rats to turn in circles contralateral to the side of the lesion. After a latency period, which varies from compound to compound, the number of turns is counted over a 15-minute period.

Another data set has as its system prolactin. Put plainly: inhibition of prolactin secretion in reserpine-treated male rats (serum prolactin). In kind it is in vivo, Sprague-Dawley rat. The following applies: intraperitoneal, one hour after treatment, reserpine-pretreated rats. As to the method:
The compounds of this invention are also useful as prolactin inhibitors and as such can be employed in the treatment of inappropriate lactation, such as postpartum lactation, and of galactorrhea.
Adult male rats of the Sprague-Dawley strain weighing about 200 g. were housed in an air-conditioned room with controlled lighting (lights on 6 a.m.-8 p.m.) and fed lab chow and water ad libitum. Each rat received an intraperitoneal injection of 2.0 mg. of reserpine in aqueous suspension 18 hours before administration of the isoindole. The purpose of the reserpine was to keep prolactin levels uniformly elevated. The compounds under test were dissolved in water and were injected intraperitoneally at doses ranging from 5 mg/kg down to 50 mcg/kg. Each compound was administered at each dose level to a group of 10 rats, and a control group of 10 intact males received an equivalent amount of solvent. One hour after treatment all rats were killed by decapitation, and 150 μl aliquots of serum were assayed for prolactin.
The difference between the prolactin level of the treated rats and prolactin level of the control rats divided by the prolactin level of the control rats gives the percent inhibition of prolactin secretion attributable to the compounds of this invention. In the table, column 1 gives the name of the compound; and columns 2-4 the percent prolactin inhibition at the given dose level.

Turning to `CCCN(CCC)C1CCc2c[nH]cc2C1` (racemic) [dl-5-di-n-propylamino-4,5,6,7-tetrahydro-2H-benzo[c]pyrrole maleate], the lethality entry in the data set with mouse (dosages of 100-300 mg/kg, intraperitoneal) is “fatal”. In addition, the deaths result in the data set on mouse (intraperitoneal dosages of 10-30 mg/kg) is “no deaths”. Also, in data set [1], the “rats exhibiting turning behavior” value is 1/3. For the same molecule, the “average turns per rat” value in data set [1] (turns counted over a 15-minute period after latency) came to 34 turns per rat. The “Percent Inhibition of Prolactin at a Given Dose Level” value is 91% in the data set with prolactin (5 mg/kg), 20% with prolactin (50 mcg/kg) and 47% with prolactin (500 mcg/kg).

With `CCN(CC)C1CCc2c[nH]cc2C1` (racemic) [dl-5-diethylamino-4,5,6,7-tetrahydro-2H-benzo[c]pyrrole maleate], the “Percent Inhibition of Prolactin at a Given Dose Level” value with prolactin (5 mg/kg) is 23%; with prolactin (500 mcg/kg) it was 25%.
